According to US11865103B2, “Methods of treating disorders associated with glycosylation defective proteins” (CASE WESTERN RESERVE UNIVERSITY, priority 2016, dated 2024):

Test system: hCLRN1^N48K-YFP; clrn1^KO/KO larvae
Test: Startle response and swimming/balance behavior of ART treated hCLRN1^N48K-YFP; clrn1^KO/KO larvae
Format: in vivo, zebrafish
Method: The startle response and swimming behavior of the clrn1^+/+ larvae, clrn1^KO/KO larvae, hCLRN1-YFP; clrn1^KO/KO larvae and hCLRN1^N48K-YFP; clrn1^KO/KO larvae were recorded at 6.5dpf, 10.5dpf, 16.5dpf and 27dpf as described earlier (Table-1). The extracellular microphonics potentials were recorded at 6dpf to confirm the hair cell function in these humanized zebrafish models for hCLRN1 (hCLRN1-YFP; clrn1^KO/KO larvae larvae) and USH3-CLRN1^N48Kmutant (hCLRN1^N48K-YFP; clrn1^KO/KO larvae) as described earlier (FIG. 5).
At 6.5 dpf, clrn1^+/+ larvae often tend to swim towards the middle or closer to surface of the water (E3 medium) in the Petri dish, and escape swiftly from the field of view when startled (by tapping the Petri dish with a metal probe). At 6.5 dpf, hCLRN1^N48K-YFP; clrn1^KO/KO larvae (n=40) were hard to distinguish from clrn1^+/+ larvae in a Petri dish when viewed from the top. […] To monitor hair cell function in the hCLRN1^N48K-YFP; clrn1^KO/KO zebrafish, larvae from several clutch were observed longitudinally from 6.5 to 27 dpf for survival, swimming behavior and startle response (Table 1). […] However, 5% of the hCLRN1^N48K-YFP; clrn1^KO/KO zebrafish do survive long enough to be able to breed like its clrn1^+/+ counterpart. […] In this model, hair cells expressing hCLRN1^N48K retained hair bundle structure and function for a longer duration than clrn1^KO/KO hair cells, consistent with previous report ‘USH3-CLRN1Y176X individuals develop severe hearing loss earlier in life compared with CLRN1^N48K individuals’. This new model for inner ear disorder associated with hCLRN1^N48K mutation will be useful to identify therapeutic agents to prevent progressive loss of hair cell function in USH3-CLRN1^N48K mutant individuals.
To verify the degree of overall rescue in swimming behavior (hair cell function) and prolongation of life span by ART treatment in the hCLRN1^N48K-YFP; clrn1^KO/KO zebrafish larvae, survival rate, swimming behavior and startle response were observed longitudinally from 6.5 to 27 dpf (Table 1). For this rescue experiment, we followed two regimens of ART treatment. Regimen I, 35 larvae from hCLRN1^N48K-YFP; clrn1^KO/KO genotype were treated with 0.4 uM ART from 3 to 7 dpf (5 days of treatment during inner ear development and hair cell maturation). Regimen II, 20 larvae from hCLRN1^N48K-YFP; clrn1^KO/KO genotype were treated with 0.4 uM ART from 3 to 12 dpf (10 days of treatment overlapping development and post-development of inner ear anatomy and hair cell maturation). At 6.5 dpf, the swimming behavior and startle response of hCLRN1^N48K-YFP; clrn1^KO/KO larvae from ART treatment regimen I and II, were indistinguishable from that of clrn1^+/+ and hCLRN1-YFP; clrn1^KO/KO larvae. About 75% (Regimen I+II: 41 larvae) of ART treated hCLRN1^N48K-YFP; clrn1^KO/KO larvae had clrn1^+/+ equivalent startle response. In regimen I and II, the survival rate and swimming behavior of hCLRN1^N48K-YFP; clrn1^KO/KO larvae beyond 25 dpf shown significant improvement from 5% in untreated hCLRN1^N48K-YFP; clrn1^KO/KO larvae to 40% (n=14) and 45% (n=[…]), respectively. […] Overall, result confirms that ART is not only able to correct the trafficking defect of hCLRN1^N48K protein, but also able to help in normal hair cell functioning of hair cells from hCLRN1^N48K-YFP; clrn1^KO/KO zebrafish and delay onset progressive loss of hair cell function.

[1] = Regimen I: 0.4 μM ART from 3 to 7 dpf

C[C@@H]1CC[C@H]2[C@@H](C)C(=O)O[C@@H]3O[C@@]4(C)CC[C@@H]1[C@]32OO4 [ART, Artemisinin]
Swimming behavior and startle response compared with clrn1^+/+ and hCLRN1-YFP; clrn1^KO/KO larvae (ART treatment regimen I and II, 6.5 dpf): indistinguishable | Larvae with clrn1^+/+ equivalent startle response (Regimen I+II, 0.4 uM ART, 6.5 dpf): About 75% | % of abnormal swimming-balance (6.5 dpf) [1]: 25.71% | % of normal swimming-balance (>25 dpf) [1]: 40% | % showing startle response at 6.5 dpf [1]: 100% | % of normal swimming-balance (>25 dpf) (Regimen II: 0.4 μM ART from 3 to 12 dpf): 45%
